The source made the active and inactive calls. The rule behind the calls is not given here.
Tests used:
MCF-10A = assay: Cell cycle arrest in human MCF-10A cells assessed as accumulation of cells at G1 phase by measuring increase in 2N DNA content measured after 24 hrs by propidium iodide staining based laser-scanning fluorescence cytometry; type: toxicity
MV4-11 [1] = assay: Cell cycle arrest in human MV4-11 cells assessed as accumulation of cells at G1-phase at 0.08 uM measured after 24 hrs by propidium iodide staining based flow cytometry (reference value: 61.42%); type: functional
MV4-11 [2] = assay: Cell cycle arrest in human MV4-11 cells assessed as accumulation of cells at G2/M-phase at 0.08 uM measured after 24 hrs by propidium iodide staining based flow cytometry (reference value: 15.23%); type: functional
MV4-11 [3] = assay: Cell cycle arrest in human MV4-11 cells assessed as accumulation of cells at G2/M-phase at 0.16 uM measured after 24 hrs by propidium iodide staining based flow cytometry (reference value: 15.23%); type: functional
MV4-11 [4] = assay: Cell cycle arrest in human MV4-11 cells assessed as accumulation of cells at G1-phase at 0.32 uM measured after 24 hrs by propidium iodide staining based flow cytometry (reference value: 61.42%); type: functional
MV4-11 [5] = assay: Cell cycle arrest in human MV4-11 cells assessed as accumulation of cells at S-phase at 0.32 uM measured after 24 hrs by propidium iodide staining based flow cytometry (reference value: 23.35%); type: functional
MDA-MB-231 [6] = assay: Cell cycle arrest in human MDA-MB-231 cells assessed as accumulation of cells at G2/M-phase at 0.16 uM measured after 24 hrs by propidium iodide staining based flow cytometry (reference value: 11.46%); type: functional
MDA-MB-231 [7] = assay: Cell cycle arrest in human MDA-MB-231 cells assessed as accumulation of cells at G1-phase at 2.5 uM measured after 24 hrs by propidium iodide staining based flow cytometry (reference value: 50.27%); type: functional
MDA-MB-231 [8] = assay: Cell cycle arrest in human MDA-MB-231 cells assessed as accumulation of cells at G2/M-phase at 2.5 uM measured after 24 hrs by propidium iodide staining based flow cytometry (reference value: 11.46%); type: functional
COLO 205 [9] = assay: In vivo inhibition of CDK4/CDK6 in human COLO 205 cells xenografted CD1 nu/nu mouse assessed as reduction in pHH3 expression at 12.5 to 50 mg/kg, po administered via gavage measured after 24 hrs by Western blot analysis; type: functional, organism-based; conditions: dose 12.5-50 mg/kg
[10] = Toxicity in human COLO 205 cells xenografted CD1 nu/nu mouse at 25 to 100 mg/kg, po administered once daily via gavage for 21 days; type: organism-based; conditions: in vivo, dose 25-100 mg/kg, time 21 day
[11] = Toxicity in human COLO 205 cells xenografted CD1 nu/nu mouse assessed as body weight loss at 50 mg/kg, po administered daily via gavage for 56 days and measured twice per week during compound dosing; type: organism-based; conditions: in vivo, 1344 h, time 56 day
[12] = Toxicity in human COLO 205 cells xenografted CD1 nu/nu mouse assessed as body weight loss at 50 mg/kg, po administered daily via gavage for 2 cycles of 3 weeks on/1 week rest; type: organism-based; conditions: in vivo
[13] = Toxicity in human COLO 205 cells xenografted CD1 nu/nu mouse assessed as change in ileum histology at 50 mg/kg, po administered daily via gavage for 2 cycles of 3 weeks on/1 week rest and measured on day 41 to 69 by histopathological analysis; type: organism-based; conditions: in vivo, time 41-69 day
[14] = Toxicity in human COLO 205 cells xenografted CD1 nu/nu mouse assessed as change in cecum histology at 50 mg/kg, po administered daily via gavage for 56 days and measured on day 41 to 69 by histopathological analysis; type: organism-based; conditions: in vivo, 1344 h, time 41-69 day
[15] = Toxicity in human COLO 205 cells xenografted CD1 nu/nu mouse assessed as change in cecum histology at 50 mg/kg, po administered daily via gavage for 2 cycles of 3 weeks on/1 week rest and measured on day 41 to 69 by histopathological analysis; type: organism-based; conditions: in vivo, time 41-69 day
[16] = Toxicity in human COLO 205 cells xenografted CD1 nu/nu mouse assessed as decrease in red cell mass at 50 mg/kg, po administered daily via gavage for 2 cycles of 3 weeks on/1 week rest and measured on day 41 to 69 by hematological analysis; type: organism-based; conditions: in vivo, time 41-69 day
COLO 205 [17] = conditions: Mus musculus, CD1, dose 50.0 mg/kg, route po, time lower 1.0 hrs, time upper […], TDE = time-dependent effect
COLO 205 [18] = conditions: Mus musculus, CD1, dose 50.0 mg/kg, route po
COLO 205 [19] = conditions: Mus musculus, CD1, dose 50.0 mg/kg, route po; remark: listed apart in the source
COLO 205 [20] = conditions: Mus musculus, CD1, dose 50.0 mg/kg, route po; remark: listed apart in the source
COLO 205 [21] = conditions: Mus musculus, CD1, dose 100.0 mg/kg, route po, time 21.0 day
COLO 205 [22] = conditions: Mus musculus, CD1, dose 100.0 mg/kg, route po, time 21.0 day; remark: listed apart in the source
COLO 205 [23] = conditions: Homo sapiens, dose 50.0 mg/kg, route po, time 56.0 day
COLO 205 [24] = conditions: Homo sapiens, dose 50.0 mg/kg, route po, time 3.0 weeks
Description: Antitumor activity against human COLO 205 cells xenografted in CD1 nu/nu mouse assessed as tumor growth inhibition at 50 mg/kg, po administered daily via gavage for 2 cycles of 3 weeks on/1 week rest

Calu-6 = conditions: Homo sapiens, dose 50.0 mg/kg, route po, time 21.0 day
Mus musculus [25] = species: Mus musculus; conditions: CD1, dose 50.0 mg/kg, route po, time 22.0 day
Mus musculus [26] = species: Mus musculus; conditions: CD1, dose 50.0 mg/kg, route po, time 22.0 day; remark: listed apart in the source
[27] = target: Homeodomain-interacting protein kinase 2 (Homo sapiens) (UniProt Q9H2X6); conditions: Sf21, dose 200.0 nM
Description: Inhibition of recombinant human N-terminal His6-tagged HIPK2 (165 to 564 residues) expressed in baculovirus infected Sf21 insect cells at 200 nM using MBP as substrate relative to control

[28] = target: Cyclin-dependent kinase 5/CDK5 activator 1 (Homo sapiens) (UniProt Q00535+Q15078); conditions: Sf21, dose 200.0 nM
Description: Inhibition of recombinant human full-length N-terminal His6-tagged cdk5/N-terminal GST-tagged p25 expressed in baculovirus infected Sf21 cells at 200 nM using histone H1 as substrate relative to control

[29] = target: Mitogen-activated protein kinase 10 (Homo sapiens) (UniProt P53779); conditions: Sf21, dose 200.0 nM
Chain of Mitogen-activated protein kinase 10 (Homo sapiens) (P53779 whole entry): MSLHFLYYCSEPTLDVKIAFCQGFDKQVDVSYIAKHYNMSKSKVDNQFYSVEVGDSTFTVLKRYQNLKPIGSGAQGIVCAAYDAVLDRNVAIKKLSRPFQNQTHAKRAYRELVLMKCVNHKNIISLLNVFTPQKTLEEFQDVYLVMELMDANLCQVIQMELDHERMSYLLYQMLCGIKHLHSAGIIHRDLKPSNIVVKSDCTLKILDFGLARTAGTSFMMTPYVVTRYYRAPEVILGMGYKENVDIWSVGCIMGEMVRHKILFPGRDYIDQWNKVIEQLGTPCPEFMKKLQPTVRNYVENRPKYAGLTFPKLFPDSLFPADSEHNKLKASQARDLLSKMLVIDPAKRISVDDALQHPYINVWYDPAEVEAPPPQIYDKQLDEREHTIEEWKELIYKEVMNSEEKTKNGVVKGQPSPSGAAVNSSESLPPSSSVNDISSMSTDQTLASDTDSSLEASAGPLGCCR
Description: Inhibition of recombinant human N-terminal His6-tagged JNK3 expressed in baculovirus infected Sf21 insect cells relative to control

Chain of Homeodomain-interacting protein kinase 2 (Homo sapiens) (Q9H2X6 whole entry, looked up): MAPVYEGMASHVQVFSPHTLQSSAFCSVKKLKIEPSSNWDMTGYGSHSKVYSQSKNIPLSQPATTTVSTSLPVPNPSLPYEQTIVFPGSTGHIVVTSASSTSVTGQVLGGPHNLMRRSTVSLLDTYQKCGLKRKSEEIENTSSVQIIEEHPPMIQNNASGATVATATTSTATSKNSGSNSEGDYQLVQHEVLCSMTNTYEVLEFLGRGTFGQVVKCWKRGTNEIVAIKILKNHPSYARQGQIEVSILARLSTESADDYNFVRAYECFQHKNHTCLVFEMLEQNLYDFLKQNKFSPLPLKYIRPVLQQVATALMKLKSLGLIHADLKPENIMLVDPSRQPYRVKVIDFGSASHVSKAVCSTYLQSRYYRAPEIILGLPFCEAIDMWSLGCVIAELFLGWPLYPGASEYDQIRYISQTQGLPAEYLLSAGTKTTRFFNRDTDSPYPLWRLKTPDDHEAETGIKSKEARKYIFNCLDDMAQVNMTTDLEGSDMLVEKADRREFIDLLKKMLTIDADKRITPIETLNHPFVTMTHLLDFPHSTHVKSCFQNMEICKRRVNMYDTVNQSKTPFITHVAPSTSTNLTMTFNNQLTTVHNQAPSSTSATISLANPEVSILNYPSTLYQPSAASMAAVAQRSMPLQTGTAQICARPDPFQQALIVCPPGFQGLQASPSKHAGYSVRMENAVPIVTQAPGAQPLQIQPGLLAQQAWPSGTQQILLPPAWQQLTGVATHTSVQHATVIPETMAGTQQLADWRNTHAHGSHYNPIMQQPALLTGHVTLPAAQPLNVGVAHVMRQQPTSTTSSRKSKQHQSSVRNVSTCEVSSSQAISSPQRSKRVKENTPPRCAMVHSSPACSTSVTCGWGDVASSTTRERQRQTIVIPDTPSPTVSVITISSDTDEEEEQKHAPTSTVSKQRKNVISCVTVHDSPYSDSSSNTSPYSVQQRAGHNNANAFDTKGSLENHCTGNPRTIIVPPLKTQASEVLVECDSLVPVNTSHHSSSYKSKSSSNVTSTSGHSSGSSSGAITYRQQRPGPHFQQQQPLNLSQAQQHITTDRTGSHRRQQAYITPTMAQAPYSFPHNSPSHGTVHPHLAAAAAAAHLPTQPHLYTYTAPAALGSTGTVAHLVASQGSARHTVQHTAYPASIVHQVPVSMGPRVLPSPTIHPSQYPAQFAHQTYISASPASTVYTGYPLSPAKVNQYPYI
Chain of Cyclin-dependent kinase 5/CDK5 activator 1 (Homo sapiens) (Q00535 whole entry): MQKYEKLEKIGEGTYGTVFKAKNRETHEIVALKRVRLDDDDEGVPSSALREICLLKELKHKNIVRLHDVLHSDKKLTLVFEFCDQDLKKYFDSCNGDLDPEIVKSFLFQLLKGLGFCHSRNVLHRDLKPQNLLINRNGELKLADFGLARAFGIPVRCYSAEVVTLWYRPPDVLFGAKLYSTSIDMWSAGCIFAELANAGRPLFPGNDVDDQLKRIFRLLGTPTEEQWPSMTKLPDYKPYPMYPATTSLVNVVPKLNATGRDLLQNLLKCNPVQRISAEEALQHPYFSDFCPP
Chain of Cyclin-dependent kinase 5/CDK5 activator 1 (Homo sapiens) (Q15078 99-307 partner limits assumed): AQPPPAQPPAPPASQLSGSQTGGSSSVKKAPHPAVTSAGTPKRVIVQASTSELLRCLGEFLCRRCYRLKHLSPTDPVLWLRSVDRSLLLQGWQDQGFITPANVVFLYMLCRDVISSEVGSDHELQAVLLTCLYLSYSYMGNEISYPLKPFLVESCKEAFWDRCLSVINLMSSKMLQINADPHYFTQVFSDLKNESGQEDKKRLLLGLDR

In the case of CCN1CCN(Cc2ccc(Nc3ncc(F)c(-c4cc(F)c5nc(C)n(C(C)C)c5c4)n3)nc2)CC1 [ABEMACICLIB], the Activity (MCF-10A) is reported as “Toxic”, the Activity (MV4-11 [1]) is reported as 89.44% and the Activity (MV4-11 [2]) is reported as 1.97%. For the same molecule, the Activity (MV4-11 [3]) was 2.73%, the Activity (MV4-11 [4]) was 95.5% and the Activity (MV4-11 [5]) was 2.68%. It also gave an Activity (MDA-MB-231 [6]) of 4.02%, an Activity (MDA-MB-231 [7]) of 86.04% and an Activity (MDA-MB-231 [8]) of 5.77%. For the same molecule, the inhibition (COLO 205 [9]) was “Active”, the Activity [10] was “Non-Toxic” and the Activity [11] was “Non-Toxic”. The Activity [12] was “Non-Toxic”, the Activity [13] was “Non-Toxic” and the Activity [14] was “Non-Toxic”. For the same molecule, the Activity [15] was “Non-Toxic”, the Activity [16] was “Non-Toxic” and the inhibition (COLO 205 [17]) was “Tde”. For the same molecule, the inhibition (COLO 205 [18]) was “Active”, the inhibition (COLO 205 [19]) was “Active” and the inhibition (COLO 205 [20]) was “inactive”. For the same molecule, the inhibition (COLO 205 [21]) was “Active”, the inhibition (COLO 205 [22]) was “Active” and the TGI (COLO 205 [23]) was “Active”. For the same molecule, the TGI (COLO 205 [24]) was “Active”, the TGI (Calu-6) was “Active” and the inhibition (Mus musculus [25]) was “inactive”. The inhibition (Mus musculus [26]) was “inactive”, the inhibition [27] was > 90% and the inhibition [28] was > 90%. The inhibition [29] was > 90%.

Reference: ChEMBL document CHEMBL5678811 (Invest New Drugs, 2014)
